Test results as given in patent US11135233B2, “Methods for preventing or mitigating acute allergic responses using human milk oligosaccharides” (Abbott Laboratories, priority 2013, dated 2021).

What was measured:
[1] = test system: skin mast cell response in sensitized mice; assay: Passive cutaneous anaphylaxis (PCA), skin mast cell response, Evans blue dye in ear pinnae; format: in vivo; conditions: oral gavage 1 mg per mouse daily for 5 days; anti-DNP IgE i.d., DNP-HSA i.v.; FIG. 3
Procedure: The ability of HMOs to attenuate skin mast cell responses, as measured by the PCA response, was determined in sensitized mice fed 2′-FL, phosphate buffered saline (PBS), lactose, or 6′-SL by detecting the level of dye in ear pinnae indicative of the PCA response.
Mice were treated with 2′-FL, 6′-SL, lactose or PBS by oral gavage (1 mg per mouse) daily for 5 days. On day 4 mice were sensitized by intradermal (i.d.) injection of anti-DNP IgE (10 ng in […] saline) into the right ear pinnae while the left ear was injected with saline alone. Twenty-four hours later, DNP-HSA (10 mg/kg) together with Evans blue (100 mg/kg) was injected intravenously (i.v.). 1 hour following i.v. injection mice were euthanized and ear pinnae collected. Evans blue dye was extracted by incubating the skin samples in DMSO for 24 h at 37° C., and measuring the optical density (O.D.) at 650 nm. Data is presented as the difference in O.D. between the control (left) and sensitized (right) ear.

[2] = test system: OVA-sensitized mice; assay: OVA-induced food allergy model: rectal temperature after final antigen challenge; format: in vivo; conditions: 200 ul of 5 mg/ml in PBS daily oral gavage; 1 hour following final OVA challenge; versus untreated or lactose treated; FIG. 5A/5B
Procedure: (§1) The ability of HMOs to attenuate the gastrointestinal mast cell response was determined by measuring the amount of diarrhea, change in body temperature, and change in mouse mast cell protease-1 (mMCP-1) levels in HMO treated mice relative to untreated and lactose treated control mice.
(§2) The OVA-induced food allergy model was modified from Yamaki and Yoshino (Allergy. 2012; 67:1259-70). Mice were sensitized with 50 μg of OVA (Sigma, St. Louis, Mo.) and 2 mg of alum (Sigma, St. Louis, Mo.) in 200 μl of Phosphate Saline Buffer (PBS) on day 0 and 14. HMO (200 ul of 5 mg/ml in PBS) treatments (2′-FL or 6′-SL) were administrated daily via oral gavage from day 27 to day 49. Mice were orally challenged with 50 μg of OVA every 3 days (Days: 28, 31, 34, 37, 40, 43, 46 and 49). On challenge days treatments were given 1 hour prior to OVA challenge. On day 49, serum, spleen and intestinal samples, were obtained. Non-sensitized PBS challenged mice served as negative controls.
Rectal temperature was monitored for 1 hour following the final antigen challenge.

[3] = test system: mouse mast cell protease-1 (mMCP-1); assay: OVA-induced food allergy model: serum mMCP-1 concentration; format: in vivo, mice; conditions: 200 ul of 5 mg/ml in PBS daily oral gavage; day 49; versus untreated and lactose treated OVA-sensitized controls; FIG. 6
Procedure: as §1, §2
Following body temperature measurements, mice were euthanized and serum mMCP-1 concentration was determined.

[4] = test system: bone marrow mast cells (BMMC); assay: In vitro mast cell degranulation (β-hexosaminidase release) in sensitized BMMC exposed to HMO; format: cell-based, Balb/c mice; conditions: anti-DNP IgE sensitized BMMC, HMO at a range of concentrations 30 min prior to DNP-HSA activation; FIG. 1A/1B
Procedure: The ability of HMOs to attenuate mast cell degranulation was tested by exposing sensitized bone marrow mast cells (BMMC) to either 2′-FL or 6′-SL.
BMMC from female Balb/c mice were obtained by culturing the bone marrow cells in enriched RPMI-1640 medium with 10% pokeweed mitogen-stimulated spleen as a source of mast cell growth factors for 3 weeks. The cells were kept at a concentration of 0.2×10^5 cells/ml in a 5% CO2, 37° C. environment, where the medium was changed weekly. BMMC were used for experiments after 3-4 weeks of culture (>95% mast cells). BMMC were sensitized with 1 ug/ml monoclonal anti-dinitrophenyl (DNP) IgE clone and seeded into 96-well plates at a final concentration of 1×10^6 cells/ml. […] Cell supernatants were harvested 30 min after DNP-HSA stimulation and stored at −20° C. until analyzed. […] Results are expressed as a percentage of total β-hexosaminidase. […]
This assay was conducted to assess in-vitro antigen-induced degranulation of mast cells. […] The release of β-hexosaminidase from mast cells was measured from the supernatant. […] The reaction was stopped with 100 μl citrate buffer pH 4.5 and read by using CytoFluor 2350 fluorescent spectrophotometer at 450 nm (excitation 356 nm). B-hexosaminidase release was presented as a percentage of the total B-hexosaminidase release determined by cell lysis with 1×triton-X.

[5] = test system: OVA-sensitized mice; assay: OVA-induced food allergy model: diarrhea score; format: in vivo; conditions: 200 ul of 5 mg/ml in PBS daily oral gavage day 27 to 49; versus untreated or lactose treated OVA-sensitized mice; FIG. 4A/4B
Procedure: as §1, §2
Diarrhea symptoms were scored by visually monitoring mice for 60 minutes after challenge as follows: 0, normal stools; 1, a few wet an unformed stools; 2, a number of wet an unformed stools with moderate perianal staining of the coat; 3, severe, watery stool with severe perianal staining of the coat.

Q: `OC[C@H]1O[C@@H](O[C@H]2[C@H](O)[C@@H](O)C(O)O[C@@H]2CO)[C@H](O)[C@@H](O)[C@H]1O` (stereo partly drawn) [lactose, reference compound] was tested. Which “difference in Evans blue dye (O.D. at 650 nm) between control (left) and sensitized (right) ear” value [1] did it give?
A: greater difference in dye detected

Q: `CC(=O)N[C@H]1[C@H]([C@H](O)[C@H](O)CO)O[C@@](OC[C@H]2O[C@@H](O[C@H]3[C@H](O)[C@@H](O)[C@H](O)O[C@@H]3CO)[C@H](O)[C@@H](O)[C@H]2O)(C(=O)O)C[C@@H]1O` [6′-SL, 6′-sialyllactose] was tested. Which “difference in Evans blue dye (O.D. at 650 nm) between control (left) and sensitized (right) ear” value [1] did it give?
A: greater difference in dye detected between right and left ears in PBS and lactose-treated mice than in mice treated with 2′-FL or 6′-SL

Q: And the “decline in rectal temperature” value [2]?
A: but not 6′-SL, Mitigates the Decline in Rectal Temperature

Q: What about the “serum mMCP-1 levels” value [3] of the same molecule?
A: but not 6′-SL, produced a significant decrease

Q: And the “β-hexosaminidase (β-Hex) activity relative to controls (percentage of total β-hexosaminidase)” value [4]?
A: significant decrease

Q: And the “stool (diarrhea) score” value [5]?
A: but not 6′-SL, Significantly Decreases Diarrhea Symptoms
